Measurements taken from patent US10966978B2, “Dose and regimen for HDM2-p53 interaction inhibitors” (Novartis AG, priority 2016, dated 2021).
Like-named read-outs stand apart in the source and are kept apart here.

Test system: patients with advanced TP53 wild-type (WT) leukemias
[1] = All subjects N = 37, All Grades

From the text: Patients with Ph+ ALL who show early markers of relapse in MRD surveillance can be considered for inclusion as long as other therapies such as TKIs are exhausted or cannot be given. • Tumor of the patient is TP53 wt characterized by, at a minimum, no mutations in exons 5, 6, 7 and 8, and the p53 status was obtained from a bone-marrow sample, collected no longer than 3 months before signing the main ICF. Safety and Tolerability Profile of Regimen 1B in Hematological Tumors

COc1ncc(-c2nc3c(n2C(C)C)[C@H](c2ccc(Cl)cc2)N(c2cc(Cl)cn(C)c2=O)C3=O)c(OC)n1 [HDM201, (S)-5-(5-Chloro-1-methyl-2-oxo-1,2-dihydro-pyridin-3-yl)-6-(4-chloro-phenyl)-2-(2,4-dimethoxy-pyrimidin-5-yl)-1-isopropyl-5,6-dihydro-1H-pyrrolo[3,4-d]imidazol-4-one]
1: Cycle 1 DLTs (1B (d1, d8 Q4W) 150 mg (6 evaluable patients)) | Cycle 1 DLTs (2C (1 week on/3 weeks off) 45 mg (8 evaluable patients)) | Cycle 1 DLTs, Total (2C, N = 8)
33 (89.2) n (%): AE: Total [1]
11 (29.7) n (%): AE: Febrile Neutropenia [1] | AE: Anaemia (All subjects N = 37, Grade 3/4)
4 (10.8) n (%): AE: Pyrexia [1] | AE: White Blood Cell Count Decreased [1]
5 (13.5) n (%): AE: Asthenia [1]
Tumor Lysis Syndrome G4: Cycle 1 DLT events observed (2C, N = 8)
7 (18.9) n (%): AE: Vomiting [1]
3 (8.1) n (%): AE: Acute Kidney Injury [1] | AE: Amylase Increased [1] | AE: Blood Creatinine Increased [1] | AE: Blood Phosphorus Increased [1] | AE: Hyperbilirubinaemia [1] | AE: Hyperphosphataemia [1] | AE: Lipase Increased [1]
4: Cycle 1 DLTs (1A 400 mg (9 evaluable patients))
20 (54.1) n (%): AE: Nausea [1]
16 (43.2) n (%): AE: Anaemia [1]
18 (48.6) n (%): AE: Thrombocytopenia/Platelet Count Decreased [1]
Acute Kidney Injury G4: Cycle 1 DLT events observed (1B, N = 6)
10 (27.0) n (%): AE: Decreased Appetite [1]
2 (5.4) n (%): AE: Abdominal Pain [1] | AE: Atrial Fibrillation [1] | AE: Blood Bilirubin Increased [1] | AE: C-Reactive Protein Increased [1] | AE: Constipation [1] | AE: Dyspepsia [1] | AE: Gamma-Glutamyltransferase Increased [1] | AE: General Physical Health Deterioration [1] | AE: Gingival Bleeding [1] | AE: Headache [1] | AE: Hyperuricaemia [1] | AE: Hypocalcaemia [1] | AE: Hyponatraemia [1] | AE: Hypophosphataemia [1] | AE: Leukopenia [1] | AE: Malaise [1] | AE: Mouth Haemorrhage [1] | AE: Pancytopenia [1] | AE: Stomatitis [1]
0 n (%): AE: Abdominal Discomfort (All subjects N = 37, Grade 3/4) | AE: Abdominal Pain (All subjects N = 37, Grade 3/4) | AE: Abdominal Pain Upper (All subjects N = 37, Grade 3/4) | AE: Amylase Increased (All subjects N = 37, Grade 3/4) | AE: Arthralgia (All subjects N = 37, Grade 3/4) | AE: Asthenia (All subjects N = 37, Grade 3/4) | AE: Atrial Fibrillation (All subjects N = 37, Grade 3/4)
4:: Cycle 1 DLTs, Total (1A all doses, N = 16)
0: Cycle 1 DLTs (1A 350 mg (4 evaluable patients)) | Cycle 1 DLTs (1A (d1 Q3W) 250 mg (3 evaluable patients)) | Cycle 1 DLTs (2A 30 mg (3 evaluable patients)) | Cycle 1 DLTs (2A (2 weeks on/2 weeks off) 20 mg (3 evaluable patients)) | Cycle 1 DLTs, Total (2A all doses, N = 6)
12 (32.4) n (%): AE: Neutropenia/Neutrophil Count Decreased [1]
9 (24.3) n (%): AE: Tumour Lysis Syndrome [1]
6 (16.2) n (%): AE: Diarrhoea [1] | AE: Fatigue [1]
1 (2.7) n (%): AE: Abdominal Discomfort [1] | AE: Abdominal Pain Upper [1] | AE: Arthralgia [1] | AE: Atypical Pneumonia [1] | AE: Balanitis Candida [1] | AE: Blood Alkaline Phosphatase Increased [1] | AE: Blood Uric Acid Increased [1] | AE: Bone Marrow Failure [1] | AE: Cardiac Failure [1] | AE: Cellulitis [1] | AE: Chronic Graft Versus Host Disease [1] | AE: Conjunctival Haemorrhage [1] | AE: Cough [1] | AE: Cystitis Viral [1] | AE: Cytomegalovirus Infection [1] | AE: Dyspnoea [1] | AE: Epistaxis [1] | AE: Graft Versus Host Disease [1] | AE: Haemoglobin Decreased [1] | AE: Hyperglycaemia [1] | AE: Hyperkalaemia [1] | AE: Hypoalbuminaemia [1] | AE: Hypokalaemia [1] | AE: Hypomagnesaemia [1] | AE: Hypotension [1] | AE: Infection [1] | AE: Infective Glossitis [1] | AE: Iron Overload [1] | AE: Lip Oedema [1] | AE: Macular Oedema [1] | AE: Oedema [1] | AE: Oedema Peripheral [1] | AE: Oral Disorder [1] | AE: Pain In Extremity [1] | AE: Pneumonia [1] | AE: Pollakiuria [1] | AE: Rash [1] | AE: Rash Erythematous [1] | AE: Rash Papular [1] | AE: Rectal Haemorrhage [1] | AE: Renal Failure [1] | AE: Skin Exfoliation [1] | AE: Subarachnoid Haemorrhage [1] | AE: Weight Decreased [1] | AE: Acute Kidney Injury (All subjects N = 37, Grade 3/4)
